Where a SMILES comes first, the peptide text is derived from it.
What was measured:
[1] = CX4/LCG supramolecular tandem membrane assay, EYPC vesicles; format: in vitro ADME; details: 25 µM lipid, EYPC⊃CX4/LCG-LUVs, 10 mM Hepes, pH 7.5, 25 °C; fractional activity at 590 s, Hill fit; error = SD of fit, n = 1
Procedure: Membrane Activity M easurements
Vesicle preparation. 100 µ L of a solution of 25 mg/ml of POPC in chloroform or 200 µ L of a solution of 25 mg/ml of EYPC in chloroform was purged with nitrogen and dried overnight under hi gh vacuum. The thin lipid film was rehydrated with 1 ml reh ydrati on buffer (= inside buffer, see Tabl e S2 ) b y agitation at room temperature for 30min and then subjected to 2 0 freeze- th aw c ycles (freezing in liquid nitro gen and thawing at 40 °C). […]
Ta b l e S 2. Combinations of lipids and inside and outside buffer for CX4/LCG -LUVs.
No. Lipid Inside buffer = rehydration buffer Outside buffer […]
Vesicle quality control. T o ensure the absence of the CX4/ LCG reporter pair in the ex travesicular ph ase, 20 µL of the collected liposome fr action w as diluted to 2 ml with outside buffer and the fluor escen ce (λ exc = 369 nm; λ em = 502 nm) was recorded during the addition of […]
A co nstant fluorescenc e intensity durin g the addition of the stron gl y bindin g sp ermine verified the complete removal o f unencapsulated materi al. The size distribution of the liposomes was confirmed b y DLS to be unimodal and in the range of 120 to 150 nm diameter. […] Subsequently, the time-dependent change in fluorescence intensity (λ exc = 369 nm; λ em = 502 nm) was record ed during addition of 20 µ L of peptide stock solutions of varying concentrations at 60 s. […]

[2] = CX4/LCG tandem membrane assay with subsequent addition of spermine (transient vs stable pores); format: in vitro ADME; details: TP10 0.2 µM or melittin 5 nM at 60 s, spermine 20 µM at 340 s, 10 mM Hepes, 175 mM glucose, pH 7.5
Procedure: This means that TP10 renders the vesicle membranes only transiently permeable, while after some time, the pores “close”, most likely due to equilibration of the inside and outside concentrations of TP10. At sufficiently low TP10 concentrations, the vesicles have consequently released only some of their content after a certain incubation time and no further release of encapsulated compounds is observed thereafter. The transient nature of the TP10 pores was also confirmed herein by the CX4/LCG tandem membrane assay (Figure 4, black line). […] At this point of time, the TP10 pores should be either closed, or there should be some remaining stable equilibrium pores, which are too small to allow efflux of relatively large CX4 and/or LCG (MW > 500 Da), but sufficiently large to allow CF efflux (MW = 376 Da). Closed pores would refer to the previously reported graded mechanism, whereas the latter would point toward an all‐or‐none release mechanism.^[ [12], [70] ^] […] The newly developed assay has therefore the added capacity to afford more fine‐grained mechanistic information on membrane activity.
The blue trace is a control to illustrate full dissociation of the CX4/LCG complex during vesicle lysis by TX‐100.
LysisLysis vesicle lysisvesicle lysis […]
calibration cocktail at 600 s. a) Original changes in fluorescence intensity of LCG ( λex = 369 nm, λem = […]

CC[C@H](C)[C@H](NC(=O)[C@H](CCCCN)NC(=O)[C@@H](NC(=O)[C@@H](N)CCC(N)=O)[C@@H](C)CC)C(=O)N[C@@H](Cc1c[nH]c2ccccc12)C(=O)N[C@@H](Cc1ccccc1)C(=O)N[C@@H](CCC(N)=O)C(=O)N[C@@H](CC(N)=O)C(=O)N[C@@H](CCCNC(=N)N)C(=O)N[C@@H](CCCNC(=N)N)C(=O)N[C@@H](CCSC)C(=O)N[C@@H](CCCCN)C(=O)N[C@@H](Cc1c[nH]c2ccccc12)C(=O)N[C@@H](CCCCN)C(=O)N[C@@H](CCCCN)C(=O)O (H-QIKIWFQNRRMKWKK-OH)
EC50 [1]: 14 ± 3 µM

CC[C@H](C)[C@H](NC(=O)[C@H](CCCCN)NC(=O)[C@H](CCCCN)NC(=O)[C@H](C)NC(=O)[C@H](CC(C)C)NC(=O)[C@H](C)NC(=O)[C@H](C)NC(=O)[C@H](CC(C)C)NC(=O)[C@H](C)NC(=O)[C@H](CCCCN)NC(=O)[C@H](CC(C)C)NC(=O)[C@H](CC(N)=O)NC(=O)[C@@H](NC(=O)[C@H](CCCCN)NC(=O)CNC(=O)[C@H](CC(C)C)NC(=O)[C@H](CC(C)C)NC(=O)[C@H](Cc1ccc(O)cc1)NC(=O)CNC(=O)[C@H](C)N)[C@@H](C)CC)C(=O)N[C@@H](CC(C)C)C(=O)O [TP10]
kind of pores (fluorescence response to spermine added after the peptide) [2]: absence of stable TP10 pores

Source: article PMC12851007 (Angewandte Chemie (International Ed. in English), 2025)
